In article PMC5314759 (2016):

What was measured:
[1] = tested on: poly[d(G-C)2] (DNA, polymer) GC; test: UV thermal melting; details: compound concentration not given here; no significant stabilization
[2] = tested on: poly[d(A-T)2] (DNA, polymer) AT; test: ethidium bromide fluorescence displacement; details: apparent; ethidium bromide displaced; Kapp = Kb × 12.6/C50; over 5 h
[3] = tested on: poly[d(A-T)2] (DNA, polymer) AT; test: UV thermal melting; details: compound concentration not given here; no significant stabilization
[4] = tested on: poly[d(G-C)2] (DNA, polymer) GC; test: ethidium bromide fluorescence displacement; details: apparent; ethidium bromide displaced; Kapp = Kb × 12.6/C50; over 5 h

ΔTM [1] [°C] | Kapp [2] | ΔTM [3] [°C] | Kapp [4] | Structure (SMILES)
2.63 ± 0.58 | 3.03 × 10^5 M(bp)^-1 | 0.38 ± 0.71 | 2.69 × 10^5 M(bp)^-1 | Cc1c(COc2ccc3c4c2O[C@H]2[C@@H](O)C=C[C@H]5[C@@H](C3)N(C)CC[C@@]452)c(C)c(COc2ccc3c4c2O[C@H]2[C@@H](O)C=C[C@H]5[C@@H](C3)N(C)CC[C@@]452)c(C)c1COc1ccc2c3c1O[C@H]1[C@@H](O)C=C[C@H]4[C@@H](C2)N(C)CC[C@@]341
0.36 ± 0.17 | 3.63 × 10^6 M(bp)^-1 | −0.17 ± 0.25 | 3.5 × 10^7 M(bp)^-1 | COC1=CC=C2[C@H]3Cc4ccc(OCc5c(C)c(COc6ccc7c8c6O[C@H]6C(OC)=CC=C9[C@@H](C7)N(C)CC[C@]986)c(C)c(COc6ccc7c8c6O[C@H]6C(OC)=CC=C9[C@@H](C7)N(C)CC[C@]986)c5C)c5c4[C@@]2(CCN3C)[C@H]1O5
1.72 ± 0.61 | 9.1 × 10^6 M(bp)^-1 | 0.73 ± 0.18 | 1.15 × 10^7 M(bp)^-1 | CO[C@H]1C=C[C@H]2[C@H]3Cc4ccc(OCc5c(C)c(COc6ccc7c8c6O[C@H]6[C@@H](OC)C=C[C@H]9[C@@H](C7)N(C)CC[C@@]896)c(C)c(COc6ccc7c8c6O[C@H]6[C@@H](OC)C=C[C@H]9[C@@H](C7)N(C)CC[C@@]896)c5C)c5c4[C@@]2(CCN3C)[C@H]1O5
